Square brackets hold non-standard residues; d marks the D form. Ends that are not written are not given here. Dip = N[C@H](C(=O)O)C(c1ccccc1)c1ccccc1
How the values were obtained:
[1] = system: B16F1 melanoma cells; test: Kill kinetics (MTT); type: cell-based, murine
Experimental: Cells were seeded as previously described for MTT assay, and incubated with LTX-401 solutions for 5, 15, 30, 60, 90, 120 and 240 minutes. Cells were washed once with 100 μl of serum-free RPMI-1640 after incubation, and further incubated in a 10% MTT solution (diluted in a serum-free RPMI-1640) for an additional 2 h.

[2] = previous studies by Ausbaucher et al.; cited from earlier work
[3] = system: A375 cells; test: Fluorescence measurement of reactive oxygen species (DCFDA); type: cell-based, human; details: 15 minutes of incubation, different concentrations
Experimental: A DCFDA cellular reactive oxygen species detection assay kit was purchased from abcam®, and A375 cells seeded in a 96-well Costar black clear bottom plate with 20,000 cells per well incubated in 37° C. 16 hours prior to DCFDA assay. Cells were washed with a 100 μL/well of pre-warmed PBS one time, and incubated with 20 µM of DCFDA in a buffer solution supplied with the kit at 37° C. in a cell culture incubator for 45 min, and then washed again with a buffer solution of 100 μL/well. […] The fluorescence intensity was determined at an excitation wavelength of 485 nm and an emission wavelength of 530 nm on a FLUOstar Galaxy plate reader.

[4] = system: rat transformed mesenchymal stem cell-derived sarcoma (rTMSC); test: Immunohistochemistry of rat rTMSC tumours; type: in vivo; details: primary and secondary tumor tissues
Experimental: Pre-cultured rat transformed mesenchymal stem cell-derived sarcoma model cells (rTMSCs) were harvested in serum free RPMI-1640 and 200,000 rTMSCs were subcutaneously inoculated in the right flank into PVG rats on day ÷2 and 20,000 rTMSCs in the opposite flank on day 0. Established tumours (25 mm^2 mean tumour size) were injected intralesionally with LTX-315 (dissolved in sterile H2O with 0.9% NaC ) (n=8) or with vehicle (sterile H2O with 0.9% NaCl) (n=6). Treatment doses of LTX-315, 50 μl at […] (1 mg), were given using a 1 ml syringe (Myjector U-100, Terumo) needle 0.5×16 mm (Fine-Ject; Henke-Sass, Wolf GmbH. Injections were provided daily for three subsequent days. Tumour size was measured three times a week using a caliper and expressed as the area of an ellipse [(maximum dimension/2)×(minimum dimension/2)]. Animals were terminated when the tumor exceeded 400 mm^2.
Formalin-fixed and paraffin-embedded tissue sections were deparaffinized in xylene and graded alcohols, hydrated and washed in PBS. After antigen retrieval in sodium citrate buffer (pH 6) in a microwave oven, the endogenous peroxidase was blocked by 0.3% H2O2 for 15 min. Sections were incubated overnight at 4° C. with primary antibody; rabbit polyclonal anti-CD3 (clone A0452 Dako) or mouse monoclonal anti-CD8 (clone OX8, ab33786, Abcam). […]

For `Cl.Cl.NCCNC(=O)C(CN)(CCCc1ccccc1)CCCc1ccccc1` [LTX-401], which cell survival ([1]; 54 μM, after two hours) is on record?
The cell survival was 50%.

What about the “time until cellular survival reduced to a minimum” value ([1]; 108 μM) of the same compound?
Its value is 90 to 120 min.

And the kill ratio ([1]; 108 μM, after 15 min)?
The kill ratio was 50%.

And the cell death ([1]; 108 μM, two hours after start of treatment)?
Its cell death is ~100%.

And the “mitochondrial membrane potential (TMRE)” value [2]?
Its value is “did not compromise the mitochondrial membrane potential”.

What does the source list for “K-K-W-W-K-K-W-Dip-K-NH2 (KKWWKKW[Dip]K-NH2) [LTX-315]”?
ROS generation [3]: Significant amounts of ROS were generated; infiltration of CD3+ and CD8+ cells (immunohistochemistry) [4]: increased infiltration of CD3^+ and CD8^+ cells

From patent US20250002854A1, “METHODS OF GENERATING POPULATIONS OF TUMOUR-INFILTRATING T CELLS” (LYTIX BIOPHARMA AS, priority 2016, published 2025)
